According to patent publication US6953671B2, “Plasma phospholipid transfer protein (PLTP) deficiency represents an anti-atherogenic state and PLTP inhibitor has anti-atherosclerosis action” (The Trustees of Columbia University in the City of New York, priority 2001, dated 2005):
pKi: −log10 of the molar value. Values belong to the compound of their own block, whether it stands above or below them. Where a SMILES comes first, the peptide text is derived from it. [ ]: non-standard residue; d: D form. Nle = CCCC[C@H](N)C(=O)O

Key:
[1] = system: hepatocytes from apoBTg/PLTP0 and apoBTg mice; test: apoB in cell lysates of radiolabeled primary hepatocytes with or without ALLN; type: cell-based, mouse; settings: 40 μg/ml ALLN, 30 min labeling; especially PLTP deficient cells
Experimental: (§1) Primary hepatocyte culture, immunoprecipitation and analysis of apoB or albumin from culture medium or cel lysate were performed as described previously^18. A, pulse change experiment, apoB in the cell media; B, pulse chase experiment, apoB in the cell lysate; C, determination of apoB secretion rate in the presence and absence of the proteoscflal inhibitor ALLN. Hepatocytes from apoBTg/PLTP0 and apoBTg mice were radiolabeled continuously with ^35Smethionine/cystein with or without 40 μg/ml ALLN fcr 30 mm. Cells ware lysed and lysates immunoprecipitated with apoB antibody. Samples were separated on SDS PAGE. D, determination of apoB secretion rate in the presence and absence of heparin. Hepatocytes from apoBTG/PLTP0 and apoBTg mice were radiolabeled continuously with ^35Smethionine/cystein with or without 10 mg/ml heparin for 3 hr. […]
(§2) Immunoprecipitation and analysis of apoB from culture medium or cell lysate: The primary hepatocytes were allowed to attach to dishes for 90 minutes. […] At each chase time point (30 minutes, 1 hour and 2 hours), medium apoB and cell lysate apoB were immunoprecipitated by apoB antibody together with protein A/G agarose, the precipitates were size-fractionated on a 4% SDS PAGE gel, the gel was dried, and the incorporation of ^35S into apoB48 and apoB100 was assessed with a Fuji Bio-Imaging Analyzer (Fuji Medical Systems, Stamford, Conn.).

[2] = target: plasma phospholipid transfer protein (PLTP) (UniProt P55065); test: PLTP inhibition assay (radiolabeled phospholipid transfer from vesicles to HDL by plasma); type: biochemical; settings: 3 μl plasma, 0-50 μM compound, 400 μl assay
Experimental: PLTP activity assays: Egg phosphatidylcholine (10 μmol) containing 10 nmol of [3H]PC (L-a-dipalmitoyl-[2-palmitoyl-9,10-3H(N)]-phosphatidylcholine) was dried under a stream of nitrogen, resuspended in 1 ml of a solution of 10 mM Tris, 150 mM NaCl, 1 mM ethylenediaminetetraacetic acid (EDTA) (pH 7.4), and then probe-sonicated and centrifuged. Transfer of radiolabeled phospholipid was measured by incubating 3 μl of plasma with radiolabeled phospholipid vesicles (125 nmol PC) and HDL (250 μg protein) in a final volume of 400 μl at 37° C. for 1 hour.
The following compound, which is a known cholesteryl ester transfer protein (CETP) inhibitor (compound No. 3 in Okamoto et al.^38) was dissolved in dimethlysulfonyl oxide (DMSO) (stock solution 2 mM): [drawing 1] A final volume of 400 μl assay system was prepared containing phosphatidylcholine, HDL, 3 μl of plasma, and 0-50 μM of the compound. Vesicles were subsequently precipitated by the addition of 300 μl of a solution of 500 mM NaCl, 215 mM MnCl2, 445 U/ml heparin, and the radioactivity of a 500-μl aliquot of the supernatant was measured.

[3] = system: hepatocytes from apoBTg/PLTP0 and apoBTg mice; test: apoB/BLp accumulation in media of primary hepatocytes with or without heparin; type: cell-based, mouse; settings: 10 mg/ml heparin, 3 hr
Experimental: as §1, §2

Compound: CCCC[C@@H](C=O)NC(=O)[C@H](CC(C)C)NC(=O)[C@H](CC(C)C)NC(C)=O [ALLN, N-acetyl-leu-leu-norleu-AL] (Ac-Leu-Leu-[Nle]-aldehyde)
levels of apoB within cells [1]: increased levels of apoB within cells

pKi [2]: 4.82
Compound: CC(C)(C)C(=O)Nc1ccccc1SSc1ccccc1NC(=O)C(C)(C)C [compound #3]

Compound: heparin
accumulation of BLp in media ([3]; PLTP deficient hepatocytes): failed to increase BLp accumulation
accumulation of BLp in media ([3]; hepatocytes from apoB transgenic mice): increased the accumulation of BLp in media
